In the supplement of paper PMC10307832:

How the values were obtained:
Assay in all cases: relative viability (nuclei count vs DMSO), 5 days (fraction); higher = more cells survive
ABC-1 = tested on: ABC-1
Method in brief: (§1)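 Cells from lung cancer lines were seeded into 1536-well plates and, one day later, dosed by pin tool. Treatments were either a single drug or a fixed dose of an anchor drug with five library-drug doses (not always all listed) in √10 steps. After 5 days, nuclei were stained in a one-step fixation (final 0.05% Triton X-100, 1% formaldehyde, 1 ug/ml Hoechst) and counted on 4× images, and relative viability is the treated-to-vehicle nuclei ratio, as the median of duplicate plates.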

CAL-12T = tested on: CAL-12T
Method in brief: as §1

ChaGo-K-1 = tested on: ChaGo-K-1
Method in brief: as §1

HCC-366 = tested on: HCC-366
Method in brief: as §1

HCC-78 = tested on: HCC-78
Method in brief: as §1

LC-2-ad = tested on: LC-2-ad
Method in brief: as §1

LOU-NH91 = tested on: LOU-NH91
Method in brief: as §1

LU99A = tested on: LU99A
Method in brief: as §1

NCI-H1651 = tested on: NCI-H1651
Method in brief: as §1

NCI-H1734 = tested on: NCI-H1734
Method in brief: as §1

NCI-H1755 = tested on: NCI-H1755
Method in brief: as §1

NCI-H2087 = tested on: NCI-H2087
Method in brief: as §1

NCI-H2228 = tested on: NCI-H2228
Method in brief: as §1

NCI-H2405 = tested on: NCI-H2405
Method in brief: as §1

NCI-H3122 = tested on: NCI-H3122
Method in brief: as §1

NCI-H460 = tested on: NCI-H460
Method in brief: as §1

PC-3 [JPC-3] = tested on: PC-3 [JPC-3]
Method in brief: as §1

RERF-LC-KJ = tested on: RERF-LC-KJ
Method in brief: as §1

UMC-11 = tested on: UMC-11
Method in brief: as §1

Structure (SMILES): O=C(O)c1ccc(-c2c[nH]c3ncc(-c4ccccc4)cc23)cc1C1CCCC1 + CC(C)C[C@H](NC(=O)[C@H](Cc1ccccc1)NC(=O)c1cnccn1)B(O)O [Bortezomib] (partner 0.002 µM)
- relative viability (ABC-1; first compound 0.04 µM): 0.264
- relative viability (ABC-1; first compound 0.1265 µM): 0.299
- relative viability (ABC-1; first compound 0.4 µM): 0.274
- relative viability (ABC-1; first compound 1.265 µM): 0.251
- relative viability (CAL-12T; first compound 0.04 µM): 0.911
- relative viability (CAL-12T; first compound 0.1265 µM): 1.17
- relative viability (CAL-12T; first compound 0.4 µM): 0.883
- relative viability (CAL-12T; first compound 1.265 µM): 0.792
- relative viability (ChaGo-K-1; first compound 0.04 µM): 1.08
- relative viability (ChaGo-K-1; first compound 0.1265 µM): 1.16
- relative viability (ChaGo-K-1; first compound 0.4 µM): 0.917
- relative viability (ChaGo-K-1; first compound 1.265 µM): 1.21
- relative viability (HCC-366; first compound 0.04 µM): 1.05
- relative viability (HCC-366; first compound 0.1265 µM): 1.12
- relative viability (HCC-366; first compound 0.4 µM): 1.03
- relative viability (HCC-366; first compound 1.265 µM): 1.06
- relative viability (HCC-78; first compound 0.04 µM): 0.477
- relative viability (HCC-78; first compound 0.1265 µM): 0.473
- relative viability (HCC-78; first compound 0.4 µM): 0.436
- relative viability (HCC-78; first compound 1.265 µM): 0.495
- relative viability (LC-2-ad; first compound 0.04 µM): 1.04
- relative viability (LC-2-ad; first compound 0.1265 µM): 1.1
- relative viability (LC-2-ad; first compound 0.4 µM): 1.02
- relative viability (LC-2-ad; first compound 1.265 µM): 0.779
- relative viability (LOU-NH91; first compound 0.04 µM): 0.484
- relative viability (LOU-NH91; first compound 0.1265 µM): 0.558
- relative viability (LOU-NH91; first compound 0.4 µM): 0.449
- relative viability (LOU-NH91; first compound 1.265 µM): 0.396
- relative viability (LU99A; first compound 0.04 µM): 1.19
- relative viability (LU99A; first compound 0.1265 µM): 1.08
- relative viability (LU99A; first compound 0.4 µM): 1.06
- relative viability (LU99A; first compound 1.265 µM): 0.816
- relative viability (NCI-H1651; first compound 0.04 µM): 0.879
- relative viability (NCI-H1651; first compound 0.1265 µM): 0.984
- relative viability (NCI-H1651; first compound 0.4 µM): 0.983
- relative viability (NCI-H1651; first compound 1.265 µM): 0.855
- relative viability (NCI-H1734; first compound 0.04 µM): 1.1
- relative viability (NCI-H1734; first compound 0.1265 µM): 1.02
- relative viability (NCI-H1734; first compound 0.4 µM): 0.83
- relative viability (NCI-H1734; first compound 1.265 µM): 0.785
- relative viability (NCI-H1755; first compound 0.04 µM): 1.01
- relative viability (NCI-H1755; first compound 0.1265 µM): 0.732
- relative viability (NCI-H1755; first compound 0.4 µM): 0.997
- relative viability (NCI-H1755; first compound 1.265 µM): 0.924
- relative viability (NCI-H2087; first compound 0.04 µM): 0.963
- relative viability (NCI-H2087; first compound 0.1265 µM): 0.902
- relative viability (NCI-H2087; first compound 0.4 µM): 0.715
- relative viability (NCI-H2087; first compound 1.265 µM): 0.565
- relative viability (NCI-H2228; first compound 0.04 µM): 0.908
- relative viability (NCI-H2228; first compound 0.1265 µM): 0.954
- relative viability (NCI-H2228; first compound 0.4 µM): 1.32
- relative viability (NCI-H2228; first compound 1.265 µM): 0.414
- relative viability (NCI-H2405; first compound 0.04 µM): 0.989
- relative viability (NCI-H2405; first compound 0.1265 µM): 1.03
- relative viability (NCI-H2405; first compound 0.4 µM): 0.916
- relative viability (NCI-H2405; first compound 1.265 µM): 0.819
- relative viability (NCI-H3122; first compound 0.04 µM): 0.976
- relative viability (NCI-H3122; first compound 0.1265 µM): 1.01
- relative viability (NCI-H3122; first compound 0.4 µM): 0.984
- relative viability (NCI-H3122; first compound 1.265 µM): 0.986
- relative viability (NCI-H460; first compound 0.04 µM): 1.07
- relative viability (NCI-H460; first compound 0.1265 µM): 1.4
- relative viability (NCI-H460; first compound 0.4 µM): 0.999
- relative viability (NCI-H460; first compound 1.265 µM): 0.939
- relative viability (PC-3 [JPC-3]; first compound 0.04 µM): 0.832
- relative viability (PC-3 [JPC-3]; first compound 0.1265 µM): 0.921
- relative viability (PC-3 [JPC-3]; first compound 0.4 µM): 0.9
- relative viability (PC-3 [JPC-3]; first compound 1.265 µM): 0.759
- relative viability (RERF-LC-KJ; first compound 0.04 µM): 1.12
- relative viability (RERF-LC-KJ; first compound 0.1265 µM): 1.14
- relative viability (RERF-LC-KJ; first compound 0.4 µM): 1.06
- relative viability (RERF-LC-KJ; first compound 1.265 µM): 0.996
- relative viability (UMC-11; first compound 0.04 µM): 0.747
- relative viability (UMC-11; first compound 0.1265 µM): 0.764
- relative viability (UMC-11; first compound 0.4 µM): 0.666
- relative viability (UMC-11; first compound 1.265 µM): 0.519
